Reference: patent US8129527B2, “Analogs of dehydrophenylahistins and their therapeutic use” (Nereus Pharmacuticals, Inc., priority 2006, dated 2012)

Test system: P388 murine leukemia cells
Assay: Cytotoxic effect in P388 cells
Assay type: cell-based
Text: The cytotoxic effects of phenylahistin, dehydrophenylahistin and various derivatives of dehydrophenylahistin were examined in P388 murine leukemia cells, HT-29 human colon cells, and PC-3 prostatic adenocarcinoma cells.

## CC(C)(C)c1[nH]cnc1/C=c1\[nH]c(=O)/c(=C/c2ccccc2)[nH]c1=O [KPU-2, tBu-dehydro-PLH]
Mus musculus, P388, read-out: IC50 (nM) P-388
  IC50: 31.8 ± 5 nM
In words
  cytotoxicity in P388 cells: exhibited cytotoxicity in P388 cells
